From ChEMBL document CHEMBL1201862, “PubChem BioAssay data set” (2004) come the findings set out here.

Common to all, as to assay: growth of human tumour cells (NCI), 48 h
Experiment [1] has as its system 786-0.
Experiment [2] deals with A549.
Experiment [3] concerns HCT-15.
For experiment [4], the system named is HT-29.
The test system of experiment [5] is IGROV-1.
Experiment [6] concerns LOX IMVI.
Experiment [7] deals with MCF7.
Experiment [8] has as its system MDA-MB-435.
Experiment [9] concerns NCI-H460.
The subject of experiment [10] is OVCAR-8.
In experiment [11] the test system is SF-295.
In experiment [12] the test system is SK-OV-3.
The subject of experiment [13] is SN12C.
Experiment [14] has as its system UACC-257.
The test system of experiment [15] is A498.
In experiment [16] the test system is HOP-92.
Experiment [17] relates to K562.
Experiment [18] has as its system T47D.

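How tested: cells in 96-well plates exposed to compound for 48 hours at five concentrations. GI50 marks 50% less growth.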 Activity calls are given as the source filed them. No stated cut-off is given here; in the data, active = GI50 up to about 1.1 µM and inactive = higher. Where a SMILES comes first, the peptide text is derived from it. The star is where a group is joined. Cbz = O=C(OCc1ccccc1)*

Take `CC(C)(C)c1cc(/C=C/C(=O)CC(=O)/C=C/c2cc(C(C)(C)C)c(O)c(C(C)(C)C)c2)cc(C(C)(C)C)c1O`: the GI50 in experiment [1] is > 50 µM (inactive); in [2], > 50 µM (inactive); in [3] it was more than 50 µM; in experiment [4], > 50 µM (inactive); in experiment [5] it was > 50 µM (inactive); in [6] it was > 50 µM (inactive). Also, the GI50 in [7], in experiment [8], in [9], in [10], in experiment [11] and in experiment [12] was > 50 µM (inactive) in each case. The GI50 in experiment [13] and in experiment [14] was > 50 µM (inactive) throughout.

For the compound `N#Cc1nc(C(=O)c2ccccc2)oc1N`, the GI50 in experiment [1] was > 100 µM (inactive); in [15], > 100 µM (inactive); in experiment [2], > 100 µM (inactive); in experiment [3], more than 100 µM; in experiment [16] it was > 100 µM (inactive); in experiment [4], > 100 µM (inactive). Also, the GI50 was 64.9 µM (inactive) in experiment [5]; > 100 µM (inactive) in [17]; > 100 µM (inactive) in experiment [6]; > 100 µM (inactive) in [7]; > 100 µM (inactive) in experiment [8]; > 100 µM (inactive) in experiment [10]. Also, the GI50 in experiment [12], in experiment [13] and in experiment [14] was > 100 µM (inactive) throughout.

Consider `Cc1ccc(/C=C2\NC(=S)N(CN3CCCCC3)C2=O)cc1`, for which the GI50 in experiment [1] was 47.3 µM (inactive); in [15], 41.3 µM (inactive); in experiment [2] it was 51.2 µM (inactive); in [3], 36.1 µM; in [16], 0.416 µM (active); in experiment [4], 24.2 µM (inactive). Besides, the GI50 in experiment [5] was > 100 µM (inactive); in [17] it was 43 µM (inactive); in experiment [6] it was 34.4 µM (inactive); in experiment [7], 28.4 µM (inactive); in experiment [8] it was 46.5 µM (inactive); in [10], 32.5 µM (inactive). The results for the GI50 in experiment [11], in experiment [12] and in experiment [13] were 44.6 µM (inactive), > 100 µM (inactive) and 63.7 µM (inactive), respectively.

With `O=c1c2cc(S(=O)(=O)Nc3ccc(Cl)cc3Cl)ccc2ncn1NS(=O)(=O)c1cccc2ccccc12`, the GI50 was 42 µM (inactive) in experiment [1]; 36.9 µM (inactive) in experiment [2]; 34.1 µM in experiment [3]; 16.2 µM (inactive) in experiment [16]; 32 µM (inactive) in experiment [4]; 20.7 µM (inactive) in experiment [5]. Besides, the GI50 in [17] is 63.5 µM (inactive); in experiment [6], 15.5 µM (inactive); in experiment [7], 20.7 µM (inactive); in [8], 58.9 µM (inactive); in experiment [9] it was 36.6 µM (inactive); in [10], 52.2 µM (inactive). Further, the GI50 is 37.4 µM (inactive) in experiment [11], 66.8 µM (inactive) in experiment [12], 91.6 µM (inactive) in experiment [13] and 77.6 µM (inactive) in experiment [14].

With `CCOC(=O)CCC(NC(=O)CNC(=O)CNC(=O)C(CCC(=O)OCC)NC(=O)C(CCC(=O)OCC)NC(=O)C(CCC(=O)OCC)NC(=O)OCc1ccccc1)C(=O)NC(CCC(=O)OCC)C(=O)NC(CCC(=O)OCC)C(=O)OCC` (centres undefined) (Cbz-E(OEt)E(OEt)E(OEt)GGE(OEt)E(OEt)E(OEt)-OEt; configuration not given here), the GI50 is > 75 µM (inactive) in experiment [1]; > 75 µM (inactive) in [2]; more than 75 µM in experiment [3]; > 75 µM (inactive) in experiment [4]; > 75 µM (inactive) in experiment [5]; > 75 µM (inactive) in experiment [6]. The GI50 in [7], in experiment [8], in experiment [9], in experiment [10], in [11] and in experiment [12] was > 75 µM (inactive) throughout. In addition, the GI50 in experiment [13] and in [14] was > 75 µM (inactive) each time.

Regarding `NC1=NC(=O)[C@H](CSCc2ccccc2)N1C(=O)OCc1ccccc1`, the GI50 in [1] is > 100 µM (inactive); in experiment [15] it was > 100 µM (inactive); in [3] it was more than 100 µM; in experiment [4], > 100 µM (inactive); in [5] it was > 100 µM (inactive); in experiment [17], > 100 µM (inactive). For the same compound, the GI50 in [6], in experiment [7], in [8], in experiment [9], in experiment [10] and in experiment [11] was > 100 µM (inactive) each time. Besides, the GI50 in experiment [13] and in [14] was > 100 µM (inactive) throughout.

In the case of `CC(=O)OC12c3ccccc3C(c3ccccc31)C1C(=O)N(c3ccccc3O)C(=O)C12` (centres undefined), the GI50 in [1] is > 100 µM (inactive); in [15], 90.2 µM (inactive); in experiment [2], > 100 µM (inactive); in [3] it was more than 100 µM; in experiment [4], 70.5 µM (inactive); in experiment [5] it was > 100 µM (inactive). The GI50 in experiment [17] was > 100 µM (inactive); in experiment [6], > 100 µM (inactive); in experiment [7], > 100 µM (inactive); in experiment [9] it was > 100 µM (inactive); in experiment [10], > 100 µM (inactive); in experiment [11], 80.2 µM (inactive). For the same compound, the GI50 in experiment [12], in experiment [13], in experiment [18] and in experiment [14] was > 100 µM (inactive) throughout.

Take `CCCc1cc(=O)oc2c3c(c4c(c12)OC(C)(C)C=C4)O[C@@H](C)[C@H](C)C3=O`: the GI50 in [1] was 16.9 µM (inactive); in experiment [15] it was 14.7 µM (inactive); in [2] it was 8.83 µM (inactive); in experiment [3], 15 µM; in experiment [4] it was 8.71 µM (inactive); in [5], 12.9 µM (inactive). Moreover, the GI50 is 6.46 µM (inactive) in experiment [17]; 18.7 µM (inactive) in experiment [6]; 17.6 µM (inactive) in experiment [7]; 21.9 µM (inactive) in experiment [8]; 15.8 µM (inactive) in experiment [9]; 17.1 µM (inactive) in experiment [10]. In addition, the GI50 in experiment [11] was 16.6 µM (inactive); in [13], 18.7 µM (inactive); in [14], 19.7 µM (inactive).

In the case of `CSc1nc(Nc2ccccc2Cl)c2c(N)nn(C)c2n1`, the GI50 in experiment [1] is 82 µM (inactive); in [15], > 100 µM (inactive); in experiment [2] it was > 100 µM (inactive); in experiment [3], more than 100 µM; in experiment [4], > 100 µM (inactive); in [5], > 100 µM (inactive). Besides, the GI50 in [17] was > 100 µM (inactive); in experiment [6], 16 µM (inactive); in experiment [8], > 100 µM (inactive); in experiment [9] it was 9.51 µM (inactive); in [10], 16.9 µM (inactive); in [11], > 100 µM (inactive). The GI50 in experiment [12] is > 100 µM (inactive); in [13], > 100 µM (inactive); in experiment [18] it was 18.7 µM (inactive); in experiment [14] it was > 100 µM (inactive).

For the compound `Cc1[nH]c(-c2ccccc2)c(-c2ccc(Cl)cc2)c1C(=O)ONC(=O)c1ccccc1`, the GI50 in [1] is 1.9 µM (inactive); in experiment [15], 6.24 µM (inactive); in [2], 2.19 µM (inactive); in experiment [3], 6.17 µM; in experiment [16], 1.77 µM (inactive); in [4], 4.6 µM (inactive). For the same compound, the GI50 in [5] was 1.16 µM (inactive); in experiment [17] it was 2.65 µM (inactive); in experiment [6], 1.39 µM (inactive); in [7] it was 11.9 µM (inactive); in experiment [8], 2.47 µM (inactive); in [9], 2.11 µM (inactive). Besides, the GI50 was 4 µM (inactive) in experiment [10]; 2.1 µM (inactive) in experiment [11]; 10.5 µM (inactive) in experiment [12]; 2.25 µM (inactive) in [13]; 6.82 µM (inactive) in [14].

As to `CCCNC(=O)Nc1ccc2c(c1)Cc1cc(N(CCCl)CCCl)ccc1-2`, the GI50 in experiment [1] is 34.6 µM (inactive); in [15] it was 10.6 µM (inactive); in experiment [2], 23.9 µM (inactive); in experiment [3], 16.5 µM; in [16] it was 25.2 µM (inactive); in experiment [4], 3.24 µM (inactive). Further, the GI50 in [5] is 14.1 µM (inactive); in experiment [17] it was 10.9 µM (inactive); in experiment [6], 12.2 µM (inactive); in experiment [7], 8.73 µM (inactive); in experiment [8] it was 21.1 µM (inactive); in experiment [9], 7.16 µM (inactive). The GI50 in [10] is 26.9 µM (inactive); in experiment [11], 14.2 µM (inactive); in [13], 33 µM (inactive); in experiment [14], 41.7 µM (inactive).

Turning to `NC(=O)Nc1c(Cl)cc(S(N)(=O)=O)cc1Cl`, the GI50 in experiment [1] was > 100 µM (inactive); in [2] it was > 100 µM (inactive); in experiment [3], more than 100 µM; in [16], > 100 µM (inactive); in experiment [4] it was > 100 µM (inactive); in experiment [5], > 100 µM (inactive). The GI50 in [17], in experiment [6], in [7], in experiment [8], in [10] and in experiment [11] was > 100 µM (inactive) throughout. In addition, the GI50 in experiment [12], in experiment [13] and in [14] was > 100 µM (inactive) throughout.

`CCOC(=O)[C@@H]1OC(c2ccccc2)O[C@H]1C(=O)OCC`: the GI50 was > 100 µM (inactive) in experiment [1]; > 100 µM (inactive) in experiment [15]; > 100 µM (inactive) in [2]; more than 100 µM in experiment [3]; > 100 µM (inactive) in experiment [16]; > 100 µM (inactive) in [4]. Besides, the GI50 in experiment [5], in experiment [17], in experiment [6], in experiment [7], in experiment [8] and in experiment [10] was > 100 µM (inactive) throughout. For the same compound, the GI50 in [11], in [12], in experiment [13] and in [14] was > 100 µM (inactive) in each case.
